# From the supplement of paper PMC10307832
# Compound: CCOC(=O)CCNc1cc(N2CCc3ccccc3CC2)nc(-c2ccccn2)n1 [GSK-J4] + CCNC(=O)c1noc(-c2cc(C(C)C)c(O)cc2O)c1-c1ccc(CN2CCOCC2)cc1 [Luminespib] (partner 0.01 µM)
# Assay: relative viability (nuclei count vs DMSO), 5 days (fraction); higher = more cells survive
# Settings: first compound 5 µM
# Procedure, shortened: (§1)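 Lung cancer cell lines, seeded in 1536-well plates, were treated the following day by pin tool with a single drug or with five library-drug doses (not always all listed) in √10 steps on top of a fixed anchor-drug dose. Cells were fixed and nuclei stained in one step after 5 days, and nuclei were counted. Relative viability is the nuclei count for treated wells divided by that for vehicle wells, reported as medians of duplicate plates.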
row,Cell Line,relative viability
1,H3255,0.693
2,NCI-H2347,0.341
3,NCI-H441,0.476
4,NCI-H1650,0.228
5,NCI-H2087,0.166
6,NCI-H1793,0.18
7,RERF-LC-KJ,1.31
8,EMC-BAC-2,0.985
9,LCLC-97TM1,0.773
10,NCI-H1651,0.727
11,NCI-H2170,0.81

# Same assay, conditions: first compound 15.81 µM
row,Cell Line,relative viability
1,CAL-12T,0.205
2,HCC-15,0.174
3,HOP-62,0.794
4,NCI-H460,0.0363
5,LU99A,0.244
6,NCI-H2085,0.41
7,A-427,0.681
8,NCI-H520,0.194
9,NCI-H838,0.247
10,NCI-H596,0.941
11,NCI-H3122,0.0946
12,BEN,0.289
13,NCI-H1395,0.723
14,201T,1.02
15,NCI-H1993,0.525
16,NCI-H1355,0.513

row,Cell Line,relative viability
1,NCI-H2405,0.511
2,NCI-H1437,1.03
3,NCI-H661,0.904
4,COR-L 105,0.633
5,H3255,0.827
6,NCI-H1975,0.178
7,NCI-H441,0.394
8,NCI-H1650,0.153
9,NCI-H1915,0.657
10,NCI-H2087,0.162
11,NCI-H1793,0.258
12,RERF-LC-KJ,1.12
13,EMC-BAC-2,1.09
14,LCLC-97TM1,0.415
15,NCI-H1651,0.701
16,NCI-H2170,0.362

# Same assay, conditions: first compound 50 µM
row,Cell Line,relative viability
1,CAL-12T,0.518
2,HCC-15,0.268
3,HOP-62,0.396
4,NCI-H460,0.0333
5,LU99A,0.223
6,NCI-H2085,0.309
7,A-427,0.311
8,NCI-H520,0.197
9,NCI-H838,0.168
10,NCI-H596,0.807
11,NCI-H3122,0.121
12,BEN,0.189
13,NCI-H1395,0.536
14,201T,0.992
15,NCI-H1993,0.494
16,NCI-H1355,0.651
17,NCI-H2405,0.653

row,Cell Line,relative viability
1,NCI-H1437,0.739
2,NCI-H661,0.6
3,COR-L 105,1.01
4,H3255,0.683
5,NCI-H2347,0.435
6,NCI-H1975,0.284
7,NCI-H441,0.308
8,NCI-H1650,0.231
9,NCI-H1915,0.613
10,NCI-H2087,0.174
11,NCI-H1793,0.134
12,RERF-LC-KJ,0.584
13,EMC-BAC-2,0.676
14,LCLC-97TM1,0.256
15,NCI-H1651,0.625
16,NCI-H2170,0.609

# Compound: CCOC(=O)CCNc1cc(N2CCc3ccccc3CC2)nc(-c2ccccn2)n1 [GSK-J4] + Cc1nc(Nc2ncc(C(=O)Nc3c(C)cccc3Cl)s2)cc(N2CCN(CCO)CC2)n1 [Dasatinib] (partner 0.075 µM)
# Assay: as above
# Settings: first compound 0.5 µM
# Procedure, shortened: as §1
row,Cell Line,relative viability
1,CAL-12T,0.431
2,HCC-15,0.624
3,HOP-62,0.625
